# In PubChem BioAssay AID624167 (Sanford-Burnham Center for Chemical Genomics, 2012):
# Calls of active or inactive are those of the source.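 The calls were made as follows: active = mean IC50 for reducing PEG3 promoter reporter signal at or below a set limit, with IC50 above the limit in both counter screens; inactive = the rest, including counter screen hits.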
# How the values were obtained:
# PEG-3 [1] = molecular target: PEG-3 (UniProt Q6IN02); assay: Peg3 promoter luciferase inhibitors, potency, dose response, cell-based, HeLa, CREF/GAPDH counter-screen panel (AID 624167); details: HeLa PEG-Prom luciferase reporter, overnight, CREF/GAPDH counter-screens, mean of runs
# Chain of PEG-3 (UniProt Q6IN02) (Q6IN02 whole entry, looked up): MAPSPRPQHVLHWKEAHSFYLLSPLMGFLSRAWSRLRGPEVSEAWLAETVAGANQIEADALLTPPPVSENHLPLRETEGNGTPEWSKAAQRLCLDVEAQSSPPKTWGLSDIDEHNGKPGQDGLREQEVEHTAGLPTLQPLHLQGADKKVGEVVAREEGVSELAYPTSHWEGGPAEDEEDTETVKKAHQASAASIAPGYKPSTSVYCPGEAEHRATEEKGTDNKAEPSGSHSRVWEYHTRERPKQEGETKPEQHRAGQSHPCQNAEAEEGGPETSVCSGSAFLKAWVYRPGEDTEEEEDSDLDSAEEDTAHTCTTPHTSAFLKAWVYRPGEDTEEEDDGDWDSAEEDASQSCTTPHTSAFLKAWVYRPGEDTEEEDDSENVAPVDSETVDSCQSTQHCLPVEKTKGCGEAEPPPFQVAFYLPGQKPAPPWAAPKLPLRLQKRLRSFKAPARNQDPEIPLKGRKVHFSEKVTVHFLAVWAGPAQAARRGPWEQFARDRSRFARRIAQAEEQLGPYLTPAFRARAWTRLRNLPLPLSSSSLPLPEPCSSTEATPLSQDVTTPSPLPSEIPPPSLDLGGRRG
# PEG-3 [2] = assay: as above; details: HeLa PEG-Prom luciferase reporter, overnight, CREF/GAPDH counter-screens
# [3] = run 1, dose range 1, individual replicate IC50 per panel
# [4] = run 2, dose range 1, individual replicate IC50 per panel
Compound,IC50 (PEG-3 [1]),IC50 (PEG-3 [2]; [3]) [µM],IC50 (PEG-3 [2]; [4]) [µM]
Cc1cc(C(=O)COC(=O)c2ccccc2Br)c(C)n1CC1CCCO1 (stereo not given),inactive,3.07,98.5
Cc1cccc(N2CCN(C(=O)C3CCN(c4ncnc5c4nc4n5CCCCC4)CC3)CC2)c1C,inactive,30.2,18.3
COc1ccc(CN2CCN(C(=O)c3cc(-c4cccnc4)nc4ccc(Cl)cc34)CC2)c(OC)c1OC,inactive,52.4,16.4
Cc1ccc(NC(=O)Nc2ccnc(-c3cccnc3)n2)cc1,> 100 µM (inactive),> 100,> 100
Cc1ccc(-c2cc(-c3ccc(C)cc3)[n+](-c3ccccc3)c(-c3ccc(C)cc3)c2)cc1,> 100 µM (inactive),> 100,> 100
C[C@@]12C(=O)Nc3cc(Cl)ccc3C(=O)N1[C@H]1c3cc(Cl)ccc3OC[C@@H]1[C@@H]2c1ccccc1,11.5 µM,16.3,6.77
CN(C)c1ccc(N=Nc2nc3ccccc3n2C)cc1,inactive,20.6,< 100
COc1ccc(-n2c(/C=C/c3ccc(O)c(OC)c3)nc3ccccc3c2=O)cc1,15.8 µM,15.8,15.8
COc1ccc(C2c3c(ncn(CCCN4CCOCC4)c3=N)Oc3ccc4ccccc4c32)cc1OC (stereo not given),18.7 µM,20.9,16.5
Cc1cc(-n2c(SCC(=O)Nc3ccc(F)c(F)c3)nc3n[nH]c(C)c3c2=N)ccc1Cl,inactive,41,30.3
CNC(=O)c1ccsc1NC(=O)c1ccc(S(=O)(=O)N2CCc3ccccc32)cc1,16.5 µM,19.2,13.9
COC(=O)c1c(NC(=O)c2ccc([N+](=O)[O-])o2)sc2c1CCN(C(C)C)C2,15.5 µM,19.2,11.8
CCc1ccc2c(c1)Sc1ccccc1CC2N1CCN(C)CC1 (stereo not given),inactive,19.7,38
N/C(=N\OC(=O)c1ccccc1)C(C(=O)NOC(=O)c1ccccc1)C1CCCCC1 (stereo not given),inactive,24.5,> 100
CN(C)S(=O)(=O)c1cccc(NC(=O)CSc2nc3c(cc2C#N)C(=O)CC(C)(C)C3)c1,inactive,21.6,19.6
CCCCCCSc1cc(-c2nc3ccc(C)cn3c2NCCCC)ccc1OC,16.2 µM,21.4,11
COc1ccc2c(c1OC)C(=O)N1c3ccccc3C(=O)N(c3ccccc3F)C21 (stereo not given),13.4 µM,15.1,11.6
COc1ccc(C(O)(CC(C)C)C(CN2CCOCC2)c2ccccc2)cc1 (stereo not given),inactive,> 100,6.84
O=C(CN1CCCC1)Nc1ccc(-c2nc3cc(NC(=O)CN4CCCC4)ccc3o2)cc1,> 100 µM (inactive),> 100,> 100
O=C(Nc1ccc(S(=O)(=O)NC2=NCCCCC2)cc1)c1ccc([N+](=O)[O-])s1,15.4 µM,19.2,11.7
N#C/C(=C\c1cccc([N+](=O)[O-])c1)C(=O)NCc1ccc(Cl)cc1,14 µM,14.7,13.4
Cc1cccc(N=C2Sc3nc4c(C)c(C)ccc4cc3CN2CCN2CCOCC2)c1,inactive,29.3,32

Compound,IC50 (PEG-3 [1]),IC50 (PEG-3 [2]; [3]) [µM],IC50 (PEG-3 [2]; [4]) [µM]
O=S(=O)(/N=C(/Sc1ccccc1)c1ccccc1)c1ccccc1,inactive,28.9,19.1
Cc1ccc2sc(N(CCCN(C)C)C(=O)c3ccc(S(=O)(=O)N(C)Cc4ccccc4)cc3)nc2c1C,13.7 µM,19,8.42
O=S(=O)(c1cccc(F)c1)N1CCN(c2nc(-c3cccnc3)nc3ccccc23)CC1,12.9 µM,10.1,15.8
CC1CCCCN1CCNC(=O)c1ccc2c(=O)n(Cc3ccc(Cl)cc3)c(=S)[nH]c2c1 (stereo not given),inactive,19.6,25.3
O=C(NC(c1ccc(F)cc1)c1ccc2ccccc2n1)C1CCN(Cc2cccc(C(F)(F)F)c2)CC1 (stereo not given),12.1 µM,16.2,7.91
c1cc2c3c(cccc3c1)NC1(CCC3(CC1)Nc1cccc4cccc(c14)N3)N2,inactive,18.4,44.7
COC(=O)C1=C(C)N(Cc2ccccc2)C(=NCc2cccc(Cl)c2)N[C@H]1c1ccccc1,15.9 µM,19.1,12.7
Cc1cc2c(c(/C=C/C(=O)c3ccccc3)c1)OC1(C=C2)Oc2ccccc2C(=O)N1C (stereo not given),18 µM,20.4,15.5
O=C1NC2C(=CC(O)C(O)C2O)c2cc3c(c(O)c21)OCO3 (stereo not given),0.293 µM,0.293,< 0.2
CCN(CC)C(=O)Cn1cc(/C=C2\C(=O)NC(=O)N(c3ccccc3F)C2=O)c2ccccc21,14 µM,14.9,13.1
O=S(=O)(Nc1cccc2ncccc12)c1cccs1,13.2 µM,17.5,8.93
CCOC(=O)c1c(NC(=O)CSc2nnnn2-c2ccccc2OCC)sc2c1CC(C)(C)NC2(C)C,inactive,19.6,39.9
O=C(Nc1ccccc1)NN(C(=O)CCl)c1ccccc1,16.7 µM,20.1,13.3
C/C(=N\N=C(N)N)c1ccc(Cl)c(Cl)c1,18.7 µM,20.3,17
COc1cc(CNCCN2CCOCC2)ccc1OCc1ccc(Cl)cc1Cl,19.8 µM,20.1,19.5
Cc1cccc(CN2C(=O)[C@H]3Cc4c([nH]c5ccccc45)C(C)(C)N3C2=O)c1,inactive,29.9,28.6
CN1CCC(N(C)S(=O)(=O)c2ccc(NC(=O)COc3ccc(Br)cc3Cl)cc2)CC1,18.7 µM,23,14.5
O=C(CN1CCN(Cc2ccccc2Cl)CC1)N=Nc1c(O)[nH]c2ccccc12,inactive,5.23,> 100
CCCCCc1ccc(OCCCC[n+]2cccc(C)c2)c(CCCCC)c1,13.6 µM,16.4,10.7
Cc1cccc2c1-c1sc(C(=O)NCCCN3CCCC(C)C3)cc1CO2 (stereo not given),15.6 µM,17.5,13.7
CCN1CCCC1CN(Cc1cc2ccc(C)cc2[nH]c1=O)C(=S)Nc1ccc(OC)cc1 (stereo not given),inactive,42,37.5
CN(C)CC1CCC/C(=C/c2ccc(Cl)cc2)C1=O (stereo not given),11.1 µM,14.5,7.74

Compound,IC50 (PEG-3 [1]),IC50 (PEG-3 [2]; [3]) [µM],IC50 (PEG-3 [2]; [4]) [µM]
CCCc1nc2oc3c(NCCCN(C)C)ncnc3c2c2c1CCCC2,14.7 µM,19.5,9.84
Cc1cc(C)cc(NC(=O)Cn2c(=O)oc3cc(S(=O)(=O)N4CCC(C)CC4)ccc32)c1,inactive,> 100,7.9
NC(=O)c1nsc(C(=O)N(c2ccccc2F)C(C(=O)NCc2ccc(F)cc2)c2ccc(O)cc2)c1N (stereo not given),inactive,30.4,16.6
c1ccc(-c2cc(-c3ccccc3)[n+](-c3ccccc3)c(-c3ccccc3)c2)cc1,12.3 µM,10.7,13.9
Cc1cc(C)c2c(N)c3ccccc3nc2n1,inactive,18.5,> 100
COc1ccc(CC(N)c2csc(NC(=O)Nc3ccccc3C(C)(C)C)n2)cc1 (stereo not given),inactive,19.1,31
CCOC(=O)CN(C(=O)CSc1nnc2c(n1)[nH]c1ccc(F)cc12)c1ccccc1,inactive,25,21.7
CC1(C(=O)NCc2cccc3ccccc23)CCN1C(=O)Cc1ccc(-c2ccccc2)cc1 (stereo not given),inactive,10.3,> 100
Cc1ccc(S(=O)(=O)N(C)C)cc1NC(=O)c1cncc(Br)c1,inactive,47.7,8.59
CCN(Cc1ccccc1)S(=O)(=O)c1ccc(C(=O)N(CCCN(C)C)c2nc3cc4c(cc3s2)OCCO4)cc1,inactive,33.3,> 100
O=S(=O)(NC1CC(NS(=O)(=O)OCC(Cl)(Cl)Cl)C2CCCCC12)OCC(Cl)(Cl)Cl (stereo not given),11.4 µM,10.8,11.9
COc1ccc(CN(C)C(=O)C(Cc2ccccc2)NC(=O)c2ccccc2)cc1F (stereo not given),inactive,60.5,65.3
CCc1nc(Nc2ccc(N3CCN(C(C)=O)CC3)cc2)c2oc3ccccc3c2n1,inactive,28.1,94.9
CCc1ccc(O)c(CNCCNCc2cc(CC)ccc2O)c1,18.5 µM,20.6,16.4
COc1ccc(CCNC(=O)C(=O)NCC2CCCN2S(=O)(=O)c2ccccc2)cc1OC (stereo not given),inactive,29.8,39.3
COc1ccc(C23CC4CC(CC(C4)C2)C3)cc1C(=O)NCCN(C)C,inactive,20.6,29.9
CC(C)(C)c1ccc(CN2N=Nc3ccccc3S2(=O)=O)cc1,inactive,30.6,40.1
CCCCN(C)CCNC(=O)c1cc(-c2cccnc2)nc2ccc(S(=O)(=O)N3CCC(C)CC3)cc12,12.9 µM,10.3,15.4
CCN1CCN(c2ccc(S(=O)(=O)N3CCOCC3)cc2NC(=O)/C=C/c2ccc([N+](=O)[O-])cc2)CC1,inactive,19,78.3
CC1=NN(c2cccc(C(=O)O)c2)C(=O)/C1=C\C=C/c1ccccc1,14.8 µM,17.7,12
Cc1c(C(=O)N2CCN(c3ccc(F)cc3)CC2)sc2ncnc(N3CCN(c4ccccn4)CC3)c12,13.7 µM,11.9,15.6
